Results as given in ChEMBL document CHEMBL3751692, “Synthesis and fluorescent study of 5-phenyl furocoumarin derivatives as vasodilatory agents” (Bioorg Med Chem Lett, 2016).

How the values were obtained:
[1] = Vasodilator activity in Sprague-Dawley rat mesentric artery assessed as reduction in of K+-induced contraction; type: functional, Mesenteric artery
[2] = Vasodilator activity in Sprague-Dawley rat mesentric artery assessed as reduction in of K+-induced contraction relative to control; type: functional; details: Mesenteric artery

| SMILES | pEC50 [1] | Emax [2] |
| --- | --- | --- |
| CC(C)=CCOc1c2occc2cc2ccc(=O)oc12 [PENTOSALEN] | 4.95 | 85.6% |
| CCOC(=O)c1ccccc1-c1c2ccoc2c(OCCN2CCCC2)c2oc(=O)ccc12 | 5.15 | 100% |
| CCOC(=O)c1ccccc1-c1c2ccoc2c(OCCN2CCOCC2)c2oc(=O)ccc12 | 5.81 | 113% |
| CCOC(=O)c1ccccc1-c1c2ccoc2c(OCCN2CCCCC2)c2oc(=O)ccc12 | 5.38 | 113% |
| COC(=O)c1ccccc1-c1c2ccoc2c(OCCN2CCCCC2)c2oc(=O)ccc12 | 5.35 | 116% |
| COC(=O)c1ccccc1-c1c2ccoc2c(OCCN(C)C)c2oc(=O)ccc12 | 5.27 | 102% |
| COc1ccc(CCN(C)CCCC(C#N)(c2ccc(OC)c(OC)c2)C(C)C)cc1OC (stereo not drawn) [VERAPAMIL] | 7.51 | 95.8% |
| COC(=O)c1ccccc1-c1c2ccoc2c(OCCN2CCOCC2)c2oc(=O)ccc12 | 5.59 | 100% |
| COC(=O)c1ccccc1-c1c2ccoc2c(OCCN2CCCC2)c2oc(=O)ccc12 | 4.71 | 102% |
